Source: patent publication US20160279190A1, “MODULATION OF AXON DEGENERATION” (GENENTECH, INC., priority 2008, published 2016)

Tested on: DRGs
Assay: anti-NGF antibody (NGF withdrawal) screen for inhibitors of neuron or axon degeneration
Format: cell-based, mouse
Settings: inhibitor 100 μM or 10 μM added 1 hour before 25 μg/ml anti-NGF antibodies; 20 hours; actin staining
Protocol: The anti-NGF antibody model described above in Example 1 was used in a screen for inhibitors of neuron or axon degeneration. A library of more than 400 small molecules (Tocris Bioscience) was tested to see which, if any, modulate degeneration observed in the presence of anti-NGF antibodies.
Mouse E13.5 embryos were dissected and placed into L15 medium (Invitrogen). The spinal cord was dissected out from the embryos with DRGs attached. The spinal cords with DRGs attached were placed into L15 medium+5% goat serum (Gibco) on ice. The DRGs were removed using a tungsten needle and the remaining spinal cord was disposed of. Eight well slides were filled with N3-F12 solution (23 ml Ham's F12, 1 ml N3 supplement, and 1 ml 1 M glucose) to which was added 25 ng/ml NGF (Roche). (N3 supplement was made by dilution of N3 100× concentrate, which was made by mixing the following ingredients, in the following order: 5.0 ml Hank's buffered saline solution (HBSS; Ca, Mg free; Invitrogen), 1.0 ml bovine serum albumin (10 mg/ml in HBSS=150 μm), 2.0 ml Transferrin (T1147-1G, human, 100 mg/ml in HBSS=1.1 mM), 1.0 ml sodium selenite (S9133-1MG, 0.01 mg/ml in HBSS=58 μM), 0.4 ml putrescine dihydrochloride (P5780-5G, 80 mg/ml in HBSS=500 mM), 0.2 ml progesterone (P8783-5G, 0.125 mg/ml in absolute ethanol=400 μM), 0.02 ml corticosterone (C2505-500MG, 2 mg/ml in absolute ethanol=5.8 mM), 0.1 ml triiodothyonine, sodium salt (T6397-100MG, 0.2 mg/ml in 0.01 N NaOH=300 μM), 0.4 ml insulin (16634-250MG, bovine pancreas, 241 U/mg, 25 mg/ml in 20 mM HCl=4.4 mM), for a total volume of 10.02 ml (can be stored at −20° C.). An N3 supplement stock was made by combining the following: 10 ml Pen/Strep (100×, Gibco), 10 ml glutamine (200 mM, Gibco), 10 ml MEM vitamins (100×, Gibco), 10 ml N3 concentrate (100×, see above), for a total volume of 40 ml. The mixture was filter sterilized using a 0.22 μm filter, and 1-2 ml aliquots were stored at −20° C.).
The DRGs were sectioned into halves, and placed in the center of each well of an 8-chamber slide (BD Biocoat PDL/Laminin coated glass, Becton Dickinson). The DRGs were permitted to attach to the slide at room temperature for 5-10 minutes, followed by an overnight incubation at 37° C. Inhibitors of choice were added at a concentration of 100 μM (top row) or 10 μM (bottom row) 1 hour before adding anti-NGF antibodies. The anti-NGF antibodies were added to the right half of the slide (4 wells) at a concentration of 25 μg/ml. After incubation for 20 hours at 37° C., the slides were fixed with 30% sucrose/8% paraformaldehyde (PFA) by adding 250 μl of the fix solution directly to the 250 μl of culture medium. (To make the 30% sucrose/8% PFA solution, the following ingredients were added to a 600 ml beaker including a stir bar: 250 ml 16% PFA (cat#15710-S, Electron Microscopy Sciences), 50 ml 10×PBS pH 7.4, and 150 g sucrose. The solution was mixed under low heat until dissolved, and then 6-8 drops of 1 M NaOH were added to bring the pH to 7.4. The volume was then brought to 500 ml with water in a graduated cylinder. The solution was mixed well, placed in aliquots, and frozen.) The slides were fixed for 30 minutes, followed by washing once with PBS. All cells were labeled with an actin stain (Alexa-568 conjugated phalloidin; 1:40; Invitrogen), a membrane dye (DiO; 1:200; Invitrogen), and a DNA stain (Hoechst 33258; 1:10,000; Invitrogen) in 0.1% Triton and 1% goat serum for 2 hours at room temperature. […]

With O=C(O)c1ccc2c3c1cccc3c(=O)n1c3ccccc3nc21 [STO-609] the “Comments (observations on protection against neurodegeneration upon NGF withdrawal)” value was “Partial”.
